In patent US9204646B2, “Pyrazole tetrahydronaphthyl carboxamides” (BAYER CROPSCIENCE AG, priority 2012, dated 2015):

Assays:
Puccinia recondita = test: In vivo preventive test on Puccinia recondita (brown rust on wheat); conditions: dose of 500 ppm; preventive spray on wheat plants; grading 12 days after contamination vs control plants
Experimental: Wheat plants (“Scipion” variety), sown in starter cups on a 50/50 peat soil-pozzolana substrate and grown at 22° C., are treated at the 1-leaf stage (10 cm height) by spraying with the active ingredient prepared as described above. Plants, used as controls, are treated with the mixture of acetone/tween/DMSO/water not containing the active material. After 24 hours, the plants are contaminated by spraying the leaves with an aqueous suspension of Puccinia recondita spores (100 000 spores per ml). […] The contaminated wheat plants are incubated for 24 hours at 20° C. and at 100% relative humidity, and then for 10 days at 20° C. and at 70-80% relative humidity. Grading (% of efficacy) is carried out 12 days after the contamination, in comparison with the control plants.

[1] = Measurement of log P values by HPLC on reversed phase columns (EEC directive 79/831 Annex V.A8); type: physicochemical; conditions: for chromatographic logP: pH 2.7; for logP: method [a]: LC-MS at pH 2.7, 0.1% formic acid in water / acetonitrile, linear gradient 10% to 95% acetonitrile, Table 1 active ingredients
[2] = system: Fusarium nivale (var. majus); test: In vivo Fusarium nivale (var. majus)-test (wheat)/preventive; conditions: concentration of 500 ppm of active ingredient; preventive spray on wheat plants; evaluated 5 days after inoculation; 0% = untreated control, 100% = no disease
Experimental: • Solvent: 49 parts by weight of N,N-dimethylacetamide • Emulsifier: 1 part by weight of alkylaryl polyglycol ether To produce a suitable preparation of active compound, 1 part by weight of active compound or active compound combination is mixed with the stated amounts of solvent and emulsifier, and the concentrate is diluted with water to the desired concentration. To test for preventive activity, young plants are sprayed with the preparation of active compound or active compound combination at the stated rate of application. After the spray coating has been dried, the plants are slightly injured by using a sandblast and afterwards they are sprayed with a conidia suspension of Fusarium nivale (var. majus). The plants are placed in the greenhouse under a translucent incubation cabinet at a temperature of approximately 10° C. and a relative atmospheric humidity of approximately 100%.

Alternaria brassicae = test: In vivo preventive test on Alternaria brassicae (leaf spot on radish); conditions: dose of 500 ppm; preventive spray on radish plants; grading 6 days after contamination vs control plants
Experimental: Radish plants (“Pernod Clair” variety), sown in starter cups on a 50/50 peat soil-pozzolana substrate and grown at 17° C., are treated at the cotyledon stage by spraying with the active ingredient prepared as described above. Plants, used as controls, are treated with the mixture of acetone/tween/DMSO/water not containing the active material. After 24 hours, the plants are contaminated by spraying the cotyledons with an aqueous suspension of Alternaria brassicae spores (50 000 spores per ml). The spores are collected from a 15-day-old culture. The contaminated radish plants are incubated at 20° C. and at 100% relative humidity. Grading (% of efficacy) is carried out 6 days after the contamination, in comparison with the control plants.

Uromyces appendiculatus = test: In vivo preventive test on Uromyces appendiculatus (bean rust); conditions: dose of 500 ppm; preventive spray on bean plants; grading 11 days after contamination vs control plants
Experimental: Bean plants (“Saxa” variety), sown in starter cups on a 50/50 peat soil-pozzolana substrate and grown at 24° C., are treated at the 2-leaf stage (9 cm height) by spraying with the active ingredient prepared as described above. Plants, used as controls, are treated with the mixture of acetone/tween/DMSO/water not containing the active material. After 24 hours, the plants are contaminated by spraying the leaves with an aqueous suspension of Uromyces appendiculatus spores (150 000 spores per ml). […] The contaminated bean plants are incubated for 24 hours at 20° C. and at 100% relative humidity, and then for 10 days at 20° C. and at 70-80% relative humidity. Grading (% of efficacy) is carried out 11 days after the contamination, in comparison with the control plants.

Septoria tritici = test: In vivo preventive test on Septoria tritici (leaf spot on wheat); conditions: dose of 500 ppm; preventive spray on wheat plants; grading 24 days after contamination vs control plants
Experimental: Wheat plants (“Scipion” variety), sown in starter cups on a 50/50 peat soil-pozzolana substrate and grown at 22° C., are treated at the 1-leaf stage (10 cm height) by spraying with the active ingredient prepared as described above. Plants, used as controls, are treated with the mixture of acetone/tween/DMSO/water not containing the active material. After 24 hours, the plants are contaminated by spraying the leaves with an aqueous suspension of cryopreserved Septoria tritici spores (500 000 spores per ml). The contaminated wheat plants are incubated for 72 hours at 18° C. and at 100% relative humidity, and then for 21 days at 90% relative humidity. Grading (% of efficacy) is carried out 24 days after the contamination, in comparison with the control plants.

Phakopsora pachyrhizi = test: In vivo Phakopsora test (soybeans)/preventive; conditions: concentration of 10 ppm of active ingredient; preventive spray on soybean plants; evaluated 7 days after inoculation; 0% = untreated control, 100% = no disease
Experimental: To produce a suitable preparation of active compound, 1 part by weight of active compound is mixed with the stated amounts of solvent and emulsifier, and the concentrate is diluted with water to the desired concentration. To test for preventive activity, young plants are sprayed with the preparation of active compound at the stated rate of application. After the spray coating has dried on, the plants are inoculated with an aqueous spore suspension of the causal agent of soybean rust (Phakopsora pachyrhizi) and stay for 24 h without light in an incubation cabinet at approximately 24° C. and a relative atmospheric humidity of 95%. The plants remain in the incubation cabinet at approximately 24° C. and a relative atmospheric humidity of approximately 80% and a day/night interval of 12 h.

Sphaerotheca fuliginea = test: In vivo preventive test on Sphaerotheca fuliginea (powdery mildew on cucurbits); conditions: dose of 500 ppm; preventive spray on gherkin plants; grading 12 days after contamination vs control plants
Experimental: Gherkin plants (“Vert petit de Paris” variety), sown in starter cups on a 50/50 peat soil-pozzolana substrate and grown at 24° C., are treated at the Z11 cotyledon stage by spraying with the active ingredient prepared as described above. Plants, used as controls, are treated with the mixture of acetone/tween/DMSO/water not containing the active material. After 24 hours, the plants are contaminated by spraying the cotyledons with an aqueous suspension of Sphaerotheca fuliginea spores (100 000 spores per ml). The spores are collected from infected plants. The contaminated gherkin plants are incubated at about 20° C. and at 70-80% relative humidity. Grading (% of efficacy) is carried out 12 days after the contamination, in comparison with the control plants.

Pyrenophora teres = test: In vivo preventive test on Pyrenophora teres (net blotch on barley); conditions: dose of 500 ppm; preventive spray on barley plants; grading 14 days after contamination vs control plants
Experimental: Barley plants (“Plaisant” variety), sown in starter cups on a 50/50 peat soil-pozzolana substrate and grown at 22° C., are treated at the 1-leaf stage (10 cm height) by spraying with the active ingredient prepared as described above. Plants, used as controls, are treated with the mixture of acetone/tween/DMSO/water not containing the active material. After 24 hours, the plants are contaminated by spraying the leaves with an aqueous suspension of Pyrenophora teres spores (12 000 spores per ml). The spores are collected from a 12-day-old culture. The contaminated barley plants are incubated for 48 hours at 20° C. and at 100% relative humidity, and then for 12 days at 20° C. at 70-80% relative humidity. Grading (% of efficacy) is carried out 14 days after the contamination, in comparison with the control plants.

Botrytis cinerea = test: In vivo preventive test on Botrytis cinerea (grey mould); conditions: dose of 500 ppm; preventive spray on gherkin plants; grading 4 to 5 days after contamination vs control plants
Experimental: Gherkin plants (“Vert petit de Paris” variety), sown in starter cups on a 50/50 peat soil-pozzolana substrate and grown at 24° C., are treated at the Z11 cotyledon stage by spraying with the active ingredient prepared as described above. Plants, used as controls, are treated with the mixture of acetone/tween/DMSO/water not containing the active material. After 24 hours, the plants are contaminated by spraying the cotyledons with an aqueous suspension of cryopreserved Botrytis cinerea spores (50 000 spores per ml). The spores are suspended in a nutrient solution composed of 10 g/L of PDB, 50 g/L of D-Fructose, 2 g/L of NH4NO3 and 1 g/L of KH2PO4. The contaminated gherkin plants are incubated at 17° C. and at 90% relative humidity. Grading (% of efficacy) is carried out 4 to 5 days after the contamination, in comparison with the control plants.

Pyricularia oryzae = type: in vivo; conditions: dose of 500 ppm; preventive spray on rice plants; grading 6 days after contamination vs control plants

Compound	Eff. % (Puccinia recondita) [%]	chromatographic logP [1]	Eff. % [2] [%]	Eff. % (Alternaria brassicae) [%]	Eff. % (Uromyces appendiculatus) [%]	Eff. % (Septoria tritici) [%]	Eff. % (Phakopsora pachyrhizi) [%]	logP [1]	Eff. % (Sphaerotheca fuliginea) [%]	Eff. % (Pyrenophora teres) [%]	Eff. % (Botrytis cinerea) [%]	Eff. % (Pyricularia oryzae) [%]
Cn1nc(C(F)F)c(C(=O)Nc2cccc3c2CCCC3(C)C)c1F [Example 1, 5-fluoro-3-(difluoromethyl)-N-(5,5-dimethyl-5,6,7,8-tetrahydronaphthalen-1-yl)-1-methyl-1H-pyrazole-4-carboxamide]	100	3.67	92	93	100	88	–	–	–	–	–	–
Cn1nc(C(F)F)c(C(=O)Nc2cccc3c2CCCC3(C)C)c1Cl [Example 2]	98	–	86	–	100	–	96	3.89[a]	–	–	–	–
C=C1c2cccc(NC(=O)c3c(C(F)F)nn(C)c3F)c2CCC1(C)C [Example 6]	89	–	–	97	97	75	–	3.87[a]	70	80	97	–
Cn1nc(C(F)F)c(C(=O)Nc2cccc3c2CCC(C)(C)C3)c1Cl [Example 25, 5-chloro-3-(difluoromethyl)-N-(6,6-dimethyl-5,6,7,8-tetrahydronaphthalen-1-yl)-1-methyl-1H-pyrazole-4-carboxamide]	98	4.04	–	70	100	100	–	–	–	–	97	–
CC1c2cccc(NC(=O)c3c(C(F)F)nn(C)c3F)c2CCC1(C)C (racemic) [Example 12]	100	–	–	–	100	–	–	4.11[a]	100	81	–	71
Cn1nc(C(F)F)c(C(=O)Nc2cccc3c2CCC(C)(C)C3)c1F [Example 22]	94	–	–	80	100	83	–	3.79[a]	100	70	99	–
